Molecules are shown by their SMILES.

In series [1] the target is T1, bovine serum albumin (BSA) (Bos taurus, UniProt P02769).
T1 construct: purchased Sigma-Aldrich
Description: Removal of p-cresol from BSA by repeated addition of water and centrifugation. Conditions: pH 8. It is filed as binding. Here is the method:
The influence of water addition on the binding affinity of p-cresol to bovine serum albumin was investigated in this example, performed at room temperature. 1 ml of a solution comprising 0.02 mg/ml p-cresol and 40 mg/ml bovine serum albumin (BSA) was centrifuged (Visaspin®) for 20 minutes. 0.5 ml of the solution was removed and analysed.
0.5 ml water (Milli-Q quality) was added to the remaining 0.5 ml solution (p-cresol and BSA) and centrifuged (in Vivaspin®) for another 20 minutes before another 0.5 ml was removed for the analysis.
The previous experiment was repeated at elevated temperature. A 1 ml solution containing 0.02 mg/ml p-cresol and 40 mg/ml bovine serum albumin (BSA), pH 8, was centrifuged (Vivaspin®) at 50° C. for 20 minutes until 0.5 ml was removed and analysed. Then 0.5 ml water (Milli-Q) was added to the remaining 0.5 ml solution comprising p-cresol and BSA, centrifuged for 20 minutes until 0.5 ml was removed for the analysis.

Series [2] is described as follows: Precipitation observed in displacer/BSA/p-cresol solutions. It is filed as physicochemical. As for the experimental part:
The mixed solutions were centrifuged to remove protein at 5700 rpm for 70 minutes at room temperature before analysis. The pH was adjusted to 7 (physiological pH) by addition of NaOH to the samples. The samples were injected into a HPLC. The measurement of p-cresol by HPLC analysis was performed at room temperature.
The influence of the pH value on the binding affinity of the p-cresol and the binding competitors to the bovine serum albumin (BSA) was investigated. […] The pH was adjusted by adding sodium hydroxide (NaOH) or hydrochloric acid (HCl). The tests were performed with the following displacer substances: sodium salicylate, sodium octanoate and sodium acetylsalicylate. […] At pH 5 the albumin exists in the N form. The results are present in Table 4

T1 sequence (P02769 25-607): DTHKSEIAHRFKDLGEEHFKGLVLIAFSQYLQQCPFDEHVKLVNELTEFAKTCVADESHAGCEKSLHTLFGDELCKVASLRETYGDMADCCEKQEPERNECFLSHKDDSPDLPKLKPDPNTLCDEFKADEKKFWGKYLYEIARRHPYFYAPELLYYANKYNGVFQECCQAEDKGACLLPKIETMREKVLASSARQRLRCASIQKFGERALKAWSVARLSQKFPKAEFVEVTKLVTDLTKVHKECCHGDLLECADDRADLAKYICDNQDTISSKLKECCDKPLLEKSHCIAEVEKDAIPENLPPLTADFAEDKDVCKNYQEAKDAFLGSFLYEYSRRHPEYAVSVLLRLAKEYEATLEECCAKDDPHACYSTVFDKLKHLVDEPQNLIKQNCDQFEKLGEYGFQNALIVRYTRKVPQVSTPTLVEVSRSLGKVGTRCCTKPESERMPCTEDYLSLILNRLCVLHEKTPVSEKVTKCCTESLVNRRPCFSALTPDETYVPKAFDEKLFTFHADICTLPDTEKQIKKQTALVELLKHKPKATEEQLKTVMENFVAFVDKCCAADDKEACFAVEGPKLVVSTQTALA

Regarding `Cc1ccc(O)cc1` [p-cresol], the p-cresol considered unbound entry in series [1] (after addition of 5 ml water, 50° C.) is reported as “About 100%”. Moreover, the “added p-cresol removed from the binding sites on BSA” value in series [1] (water addition repeated 16 times, room temperature) was roughly 100%. Moreover, the “calculated amount of p-cresol removed” value in series [1] (water addition repeated 16 times, room temperature, 0.02 mg p-cresol added) is 0.01989 mg. Also, the “measured amount of p-cresol” value in series [1] (water addition repeated 20 times, 50° C., more than the added amount) is recorded as 0.027 mg.
As to `CCCCCCCC(=O)[O-].[Na+]` [sodium octanoate], the precipitation result in series [2] (sodium octanoate 100 mg/ml and 200 mg/ml, pH 6) was “Precipitation occurred”; in series [2] (sodium octanoate with BSA and p-cresol, pH 5), “precipitation of the solution was observed”.
In the case of `O=C([O-])c1ccccc1O.[Na+]` [sodium salicylate], in series [2] (sodium salicylate with BSA and p-cresol, pH 4), the precipitation result is listed as “precipitation occurred”.

Source of the values: patent US12186467B2, “Cleaning of biological fluid” (GAMBRO LUNDIA AB, priority 2012, dated 2025).
